| SMILES | melting point |
| --- | --- |
| CCON=C(N)c1ccc(S(C)(=O)=O)c(-c2nc3cc(C(F)(F)F)ccc3n2C)n1 [1-205, N′-ethoxy-5-methylsulfonyl-6-[1-methyl-5-(trifluoromethyl)benzimidazol-2-yl]pyridine-2-carboxamidine] | 149 to 150 °C |
| CCON=C(N)c1ccc(S(=O)(=O)NC)c(-c2nc3cc(C(F)(F)F)ccc3n2C)n1 [1-210, N′-ethoxy-5-methylsulfamoyl-6-[1-methyl-5-(trifluoromethyl)benzimidazol-2-yl)pyridine-2-carboxamidine] | 173 to 174 °C |
| CCON=C(NC)c1ccc(S(C)(=O)=O)c(-c2nc3cc(C(F)(F)F)ccc3n2C)n1 [1-216, N′-ethoxy-N-methyl-5-methylsulfonyl-6-[1-methyl-5-(trifluor omethyl)benzimidazol-2-yl]pyridine-2-carboxamidine] | 154 to 155 °C |
| CCON=C(c1ccc(S(C)(=O)=O)c(-c2nc3cc(C(F)(F)F)ccc3n2C)n1)N(C)C [1-220, N′-ethoxy-N,N-dimethyl-5-methylsulfonyl-6-[1-methyl-5-(trifluoromethyl)benzimidazol-2-yl)pyridine-2-carboxamidine] | 150 to 151 °C |
| CCO/N=C/c1ccc(C(=O)O)c(-c2nc3cc(SC(F)(F)F)ccc3n2C)n1 [2-81, 6-[(E)-ethoxyiminomethyl]-2-[1-methyl-5-(trifluoromethylthio)benzimidazol-2-yl]pyridine-3-carboxylic acid] | 195 to 196 °C |
| CCO/N=C/c1ccc(C(=O)N(C)C)c(-c2nc3cc(SC(F)(F)F)ccc3n2C)n1 [2-95, 6-[(E)-ethoxyiminomethyl]-N,N-dimethyl-2-[1-methyl-5-(trifluoromethylthio)benzimidazol-2-yl]pyridine-3-carboxamide] | 118 to 119 °C |
| CCO/N=C(\C)c1ccc(C(=O)OC)c(-c2nc3cc(SC(F)(F)F)ccc3n2C)n1 [2-105, 6-[(E)-N-ethoxy-C-methyl-carbonimidoyl]-2-[1-methyl-5-(trifluoromethylthio)benzimidazol-2-yl]pyridine-3-carboxylic acid methyl ester] | 121 to 122 °C |
| CCON=C(N)c1ccc(C(=O)OC)c(-c2nc3cc(C(F)(F)F)ccc3n2C)n1 [2-123, N′-ethoxy-5-methoxycarbonyl-6-[1-methyl-5-(trifluoromethyl)benzimidazol-2-yl)pyridine-2-carboxamidine] | 46 to 47 °C |
| CCON=C(N)c1cc(C)c(Cl)c(-c2nc3cc(C(F)(F)F)ccc3n2C)n1 [3-65, 5-chloro-N′-ethoxy-4-methyl-6-[1-methyl-5-(trifluoromethyl)benzimidazol-2-yl]pyridine-2-carboxamidine] | 144 to 145 °C |
| CCON=C(N)c1cc(C)c(S(C)(=O)=O)c(-c2nc3cc(C(F)(F)F)ccc3n2C)n1 [3-70, N′-ethoxy-4-methyl-5-methylsulfonyl-6-[1-methyl-5-(trifluor omethyl)benzimidazol-2-yl]pyridine-2-carboxamidine] | 246 to 247 °C |
| CCO/N=C(\N)c1cnc(S(=O)(=O)NC)c(-c2nc3cc(C(F)(F)F)ccc3n2C)n1 [7-46, (Z)-N′-ethoxy-6-(1-methyl-5-(trifluoromethyl)-1H-benzo[d]imidazol-2-yl)-5-(N-methylsulfamoyl)pyrazine-2-carboximidamide] | 244 to 246 °C |
| CCO/N=C(\N)c1ncc(S(=O)(=O)NC)c(-c2nc3ccccc3n2C)n1 [8-6, (Z)-N′-ethoxy-4-(1-methyl-1H-benzo[d]imidazol-2-yl)-5-(N-methylsulfamoyl)pyrimidine-2-carboximidamide] | 222 to 223 °C |

— patent publication US20230357210A1, “NITROGEN-CONTAINING CONDENSED HETEROCYCLIC COMPOUND HAVING AN OXIME GROUP, AGRICULTURAL OR HORTICULTURAL HERBICIDE COMPRISING THE COMPOUND, AND METHOD FOR USING THE COMPOUND OR THE HERBICIDE” (NIHON NOHYAKU CO., LTD., priority 2020, published 2023)
